{"source": "patent US10011874B2", "about": "“Androgen receptor mutation” (NOVARTIS AG, priority 2013, dated 2018)", "key": {"[1]": {"tested_on": "T878A-bearing mutant alleles of AR (KLK3 expression)", "experiment": "qPCR of KLK3 in LNCaP engineered to express T878A-bearing mutant ARs", "type": "cell-based", "settings": "10 μM; 10% FCS; FIG. 15", "experimental": "[…]. […] Infected cells were maintained in neomycin for 3 weeks.\nFor spontaneous clones: 200 k cells were seeded in 6 well plates in RPMI 1640 supplemented with 10% FCS for 2 d prior to treatment with various compounds for 24 h. Alternatively, for experiments involving androgen-depletion, 200 k cells were seeded and grown in 6 well plates in phenol-free RPMI 1640 supplemented with 10% FCS for 2 d. […] Similar protocols were applied for genetically engineered lines except that cells were pretreated with Dox for at least 2 d prior to treatment with various compounds to allow sufficient transgene expression. Total RNA was extracted using the RNeasy plus mini kit (Qiagen, cat#74136) according to the manufacturer's instructions. 1-2 μg of total RNA was used for cDNA synthesis using a high capacity cDNA reverse transcription kit (Applied Biosystems, cat#4368813). cDNA from each sample was diluted 15-20 fold and real-time was performed in triplicates using gene-specific primers and FastStart Universal Probe Master Mix (Rox) (Roche Applied Science) on an ABI 7900HT series PCR machine. Expression levels were normalized to TBP expression. All analysis was performed using the SDS2.3 software. […]"}, "[2]": {"tested_on": "AR localization in control (C1) LNCaP line", "experiment": "Nuclear/cytoplasmic fractionation of AR, control line C1", "type": "cell-based", "settings": "10 μM, 24 h", "quoted_text": "(§7) The next day, cells were harvested with trypsin, centrifuged at 500×g for 5 min, washed with PBS, transferred to 1.5 ml microcentrifuge tubes and pelleted by centrifugation at 500×g for 2-3 min. […] Briefly, the pellet was resuspended in 500 μl of ice-cold Cer I buffer and incubated on ice for 10 min. Following incubation, 27.5 μl of ice-cold Cer II buffer was added, vortexed and incubated for 1 min on ice. The lysate/Cer I/II mixture was vortexed again, centrifuged at 14000×g for 5 min and the cytoplasmic extract (supernatant) was transferred to pre-chilled tubes. The insoluble pellet, which contains nuclei, was resuspended in ice-cold 250 μl NER buffer, vortexed and placed on ice. Sample was vortexed for 15 s every 10 min for a total of 40 min. Following incubation, samples were centrifuged at 14000×g for 10 min. Supernatant, which contains the nuclear extract, was transferred to pre-chilled tubes. These samples were processed for immunoblot analysis as described above."}, "[3]": {"tested_on": "CYP2C19", "settings": "in humans; cited from earlier work"}, "[4]": {"tested_on": "LNCaP cells", "experiment": "Culture of LNCaP cells with MDV3100", "type": "cell-based", "settings": "short-term culture (<1.5 months); FCS+MDV relative to FCS", "experimental": "2 million LNCaP cells were seeded into four 150 cm^2 tissue culture dishes in phenol red-free RPMI 1640 media supplemented with 10% FCS. […] Cells were re-seeded into 150 cm^2 dishes supplemented with the appropriate treatments once each week. Media and compound was replaced for dish 4 once every week. Once resistant clones emerged, media was aspirated from dish 4. […] Cells from control dishes 1-3 were maintained until resistant clones were cryopreserved to maintain a constant culture time for control and experimental lines."}, "[5]": {"tested_on": "AR localization in strongly resistant clone #1", "experiment": "Nuclear/cytoplasmic fractionation of AR, strongly resistant clone #1", "type": "cell-based", "settings": "10 μM, 24 h", "quoted_text": "as §7"}, "[6]": {"tested_on": "AR pathway activity in control and weakly resistant lines", "experiment": "Microarray clustering and GSEA of AR pathway activity, control and weakly resistant lines", "type": "cell-based", "settings": "10 μM, 24 h", "experimental": "(§1) Total RNA was isolated from cells using the Qiagen RNeasy Kit. RNA integrity and purity were assessed with the RNA 6000 Nano LabChip system on a Bioanalyzer 2100 (Agilent Technologies). Generation of labeled cDNA and hybridization to Affymetrix GeneChip Human Genome U133 Plus 2.0 Array (Affymetrix Inc.) was performed using standard protocols as previously described (8). Probesets from the Affymetrix gene expression datasets were normalized using MASS with a trimmed-mean target of 150, and log 2-transformed. Probesets were then filtered for inclusion only if their maximum value over different samples was at least 5. […] This regression was used to generate nominal p-values and regression coeffecients (i.e. fold-changes)."}, "[7]": {"tested_on": "E2F1 target genes DHFR and TK1 in control line", "experiment": "qPCR of E2F1 target genes in control line", "type": "cell-based", "settings": "10 μM, 24 h", "experimental": "(§2) For spontaneous clones: 200 k cells were seeded in 6 well plates in RPMI 1640 supplemented with 10% FCS for 2 d prior to treatment with various compounds for 24 h. Alternatively, for experiments involving androgen-depletion, 200 k cells were seeded and grown in 6 well plates in phenol-free RPMI 1640 supplemented with 10% FCS for 2 d. […] Similar protocols were applied for genetically engineered lines except that cells were pretreated with Dox for at least 2 d prior to treatment with various compounds to allow sufficient transgene expression. Total RNA was extracted using the RNeasy plus mini kit (Qiagen, cat#74136) according to the manufacturer's instructions. 1-2 μg of total RNA was used for cDNA synthesis using a high capacity cDNA reverse transcription kit (Applied Biosystems, cat#4368813). cDNA from each sample was diluted 15-20 fold and real-time was performed in triplicates using gene-specific primers and FastStart Universal Probe Master Mix (Rox) (Roche Applied Science) on an ABI 7900HT series PCR machine. Expression levels were normalized to TBP expression. All analysis was performed using the SDS2.3 software. The following gene-specific primers (Invitrogen) were used: AR (Hs00171172_m1), KLK3 (Hs02576345_m1), NKX3-1 (Hs00171834_m1), TMPRSS2 (Hs01120965_m1), SLC45A3 (Hs00263832_m1), TBP (Hs00427620_m1), DHFR (Hs00758822_s1) and TK1 (Hs01062125_m1)."}, "[8]": {"tested_on": "AR target genes KLK3, NKX3-1 and SLC45A3 in strongly resistant clones", "experiment": "qPCR of AR target genes in strongly resistant clones", "type": "cell-based", "settings": "24 h", "experimental": "as §2"}, "[9]": {"tested_on": "LNCaP control (C1) tumors", "experiment": "In vivo tumorigenesis assay, control C1 xenografts", "design": "species or system castrated male nu/nu mice", "experimental": "10 million LNCaP cells (C1, clone #1) mixed 1:1 with matrigel were injected subcutaneously into the flank of castrated 7-8 week male nu/nu mice. […]. Tumors were measured using calipers and tumor volumes were calculated using length×width/2. Data is expressed as mean±SEM. All animal experiments were performed in compliance with the guidelines of Novartis Biomedical Research Animal Care and Use Committee protocols and regulations."}, "[10]": {"tested_on": "AR pathway activity in strongly resistant clones", "experiment": "Microarray clustering and GSEA of AR pathway activity, strongly resistant clones", "type": "cell-based", "settings": "10 μM, 24 h", "experimental": "as §1"}, "[11]": {"settings": "randomized clinical trial; cited from earlier work"}, "[12]": {"tested_on": "CYP3A4", "settings": "in humans; cited from earlier work"}, "[13]": {"tested_on": "CYP2C9", "settings": "in humans; cited from earlier work"}, "[14]": {"tested_on": "LNCaP lines engineered to express W742C/T878A AR", "experimental": "(§3) Codon-optimized cDNAs encoding WT or mutant ARs were synthesized (DNA2.0) and subcloned into the pLKO-TREX-HA-Neo (Invitrogen). […] Virus was harvested 2-3 d after transfection, filtered, and used to infect LNCaP, MyC-CaP and VCaP cell cultures in the presence of 8 μg ml-1 polybrene. Infected cells were maintained in neomycin for 3 weeks. In all cases, at least 1000 independent clones were pooled to generate stable cell lines to avoid clonal variations. Stable cell lines infected with control vectors were generated in parallel for use as experimental controls.\n(§4) 5000-7500 cells (spontaneous resistant or engineered lines) were seeded in 6-well plates in media supplemented with 10% FCS. […] Viable colonies were stained after 3-4 week cultures. Following media aspiration, 0.5% crystal violet was added to the wells and left overnight. The next morning, crystal violet solution was removed and wells were carefully washed with ddH2O to remove residual staining solution. The plates were air-dried overnight prior to imaging."}, "[15]": {"tested_on": "LNCaP lines engineered to express AR-F877L/T878A", "experiment": "Long-term colony formation assay, LNCaP expressing AR-F877L/T878A", "type": "cell-based", "settings": "for growth sensitivity compared with bicalutamide: AR-F877L/T878A LNCaP lines, FIG. 6C colony formation", "experimental": "as §3, §4"}, "[16]": {"tested_on": "weakly resistant LNCaP clones #9, 10 and 14", "experiment": "Short-term CellTiter-Glo growth assay, weakly resistant LNCaP clones", "type": "cell-based", "settings": "Homo sapiens, read-out: aggregate IC50, growth inhibition", "experimental": "(§5) Cells were re-seeded into 150 cm^2 dishes supplemented with the appropriate treatments once each week. Media and compound was replaced for dish 4 once every week. Once resistant clones emerged, media was aspirated from dish 4. […] Cells from control dishes 1-3 were maintained until resistant clones were cryopreserved to maintain a constant culture time for control and experimental lines.\n(§6) 1000 cells (spontaneous resistant or engineered lines) were seeded in media supplemented with 10% FCS. For spontaneous resistant clones, increasing concentrations of compounds were added on the day of seeding whereas for engineered lines, compounds were added after 2 d of doxycycline treatment. In all cases growth assays were performed using CellTiter-Glo Luminescent Cell Viability Assay Reagent (Promega, cat# G7573) 7 d following compound treatment."}, "[17]": {"tested_on": "W742L and W742C mutant ARs", "experiment": "AR luciferase reporter transactivation assay, W742 mutants", "type": "cell-based, human", "settings": "10 μM, FIG. 12", "quoted_text": "Reporter assays were performed as follows: 3×10^5 HEK293T cells were seeded in 6-well plates in DMEM supplemented with 10% FCS and 1×NEAA 24 h prior to transfection. Alternatively, 1×10^6 VCaP cells or 3×10^5 PC3 cells were seeded in 6-well plates in appropriate media supplemented with 10% CSS 24 h prior to transfection. […] Cells were collected ˜16 h following treatment and assayed for luciferase activity using the Glomax 96 microplate luminometer (Promega). Firefly activity was normalized to Renilla using the Dual Luciferase Assay reagent (Promega, E1910). All experiments were performed at least three times."}, "[18]": {"tested_on": "LNCaP cells, controls (C1-C3)", "experiment": "cells", "settings": "Homo sapiens, read-out: aggregate IC50, growth inhibition", "experimental": "as §5, §6"}, "[19]": {"tested_on": "W742C/T878A mutant AR (KLK3 expression)", "type": "cell-based", "experimental": "as §3"}, "[20]": {"tested_on": "strongly resistant LNCaP clones #1, 15, 19, 24 (AR F877L/T878A)", "experiment": "Short-term CellTiter-Glo growth assay, strongly resistant LNCaP clones", "type": "cell-based", "settings": "for growth sensitivity compared with bicalutamide: strongly resistant clones, FIG. 6B", "experimental": "as §5, §6"}}}
{"smiles": "CC(C)(O)C(=O)Nc1ccc([N+](=O)[O-])c(C(F)(F)F)c1", "note": "[hydroxyflutamide]", "values": [{"measurement": "agonist/antagonist behaviour on KLK3 expression", "setting": "[1]", "value": "antagonist-to-agonist switch"}]}
{"smiles": "CNC(=O)c1ccc(N2C(=S)N(c3ccc(C#N)c(C(F)(F)F)c3)C(=O)C2(C)C)cc1F", "note": "[MDV3100, 4-{3-[4-cyano-3-(trifluoromethyl)phenyl]-5,5-dimethyl-4-oxo-2-sulfanylideneimidazolidin-1-yl}-2-fluoro-N-methylbenzamide]", "values": [{"measurement": "nuclear AR localization", "setting": "[2]", "value": "significantly impaired"}, {"measurement": "CYP2C19 induction", "setting": "[3]", "value": "moderate"}, {"measurement": "effect of short-term culture on cell population", "setting": "[4]", "value": "population-wide stasis"}, {"measurement": "nuclear AR localization", "setting": "[5]", "value": "not significantly altered"}, {"measurement": "AR pathway activity upon treatment", "setting": "[6]", "value": "reduced AR pathway activity"}, {"measurement": "expression of E2F1 target genes DHFR and TK1", "setting": "[7]", "value": "suppressed expression"}, {"measurement": "effect on expression of AR target genes KLK3, NKX3-1 and SLC45A3", "setting": "[8]; 10 μM, 10% FCS, FIG. 2c", "value": "blunted effects"}, {"measurement": "KLK3 expression", "setting": "[8]; media stripped of androgens (10% CSS), alone or with agonist", "value": "significantly enhanced KLK3 expression"}, {"measurement": "body weight during treatment period", "setting": "[9]; control 1 xenograft mice, 30 mg/kg daily", "value": "No significant body weight loss"}, {"measurement": "tumor growth under treatment", "setting": "[9]; control C1 tumors, 30 mg/kg daily", "value": "immediate stasis"}, {"measurement": "tumor take rates, treated vs. vehicle", "setting": "[9]; control cells C1, 9 of 15 vs. 10 of 15", "value": "indistinguishable"}, {"measurement": "AR pathway activity upon treatment", "setting": "[10]", "value": "insignificant change"}, {"measurement": "incidence of most common adverse drug reactions (asthenia/fatigue, back pain, diarrhea, arthralgia, hot flush etc.)", "setting": "[11]", "value": "≥ 5", "unit": "%"}, {"measurement": "CYP3A4 induction", "setting": "[12]", "value": "strong"}, {"measurement": "CYP2C9 induction", "setting": "[13]", "value": "moderate"}]}
{"smiles": "CC(O)(CS(=O)(=O)c1ccc(F)cc1)C(=O)Nc1ccc(C#N)c(C(F)(F)F)c1", "note": "(stereo not drawn) [bicalutamide, N-[4-cyano-3-(trifluoromethyl)phenyl]-3-[(4-fluorophenyl)sulfonyl]-2-hydroxy-2-methylpropanamide]", "values": [{"measurement": "growth under treatment on expression of W742C/T878A allele", "setting": "[14]", "value": "significantly rescued growth"}, {"measurement": "growth under treatment on expression of F877L/T878A allele", "setting": "[15]", "value": "remained sensitive"}, {"measurement": "IC50", "setting": "[16]", "value": "> 10", "unit": "µM"}, {"measurement": "agonist/antagonist behaviour in AR reporter assay", "setting": "[17]", "value": "antagonist-to-agonist switch"}, {"measurement": "IC50", "setting": "[18]", "value": 1, "unit": "µM"}, {"measurement": "agonist/antagonist behaviour on KLK3 expression", "setting": "[19]", "value": "antagonist-to-agonist switch"}, {"measurement": "IC50", "setting": "[20]; Homo sapiens, LNCaP, read-out: aggregate IC50, growth inhibition", "value": 5, "unit": "µM"}]}
{"smiles": "CN(C)C(=O)c1cc2cnc(Nc3ccc(N4CCNCC4)cn3)nc2n1C1CCCC1", "note": "[LEE011, 7-Cyclopentyl-2-(5-piperazin-1-yl-pyridin-2-ylamino)-7H-pyrrolo[2,3-d]pyrimidine-6-carboxylic acid dimethylamide]", "values": [{"measurement": "growth sensitivity compared with bicalutamide", "setting": "[15]", "value": "as sensitive"}, {"measurement": "growth sensitivity compared with bicalutamide", "setting": "[20]", "value": "as sensitive"}]}
{"smiles": "CC(=O)c1c(C)c2cnc(Nc3ccc(N4CCNCC4)cn3)nc2n(C2CCCC2)c1=O", "note": "[PD0332991]", "values": [{"measurement": "growth sensitivity compared with bicalutamide", "setting": "[15]", "value": "as sensitive"}, {"measurement": "growth sensitivity compared with bicalutamide", "setting": "[20]", "value": "as sensitive"}]}
